In patent US9744173B2, “2-amino 6-methyl-4,4a,5,6-tetrahydropyrano[3,4-d][1,3]thiazin-8a(8H)-yl-1,3-thiazol-4-yl amides” (Pfizer Inc., priority 2014, dated 2017):

Experiments:
[1] = tested on: sAPPβ in H4 human neuroglioma cells over-expressing the wild-type human APP695; assay: sAPPβ Whole-Cell Assay (WCA); assay type: cell-based; conditions: 18 h
Procedure: sAPPβ Whole-Cell Assay (WCA): sAPPβ, the primary cleavage product of BACE1, was determined in H4 human neuroglioma cells over-expressing the wild-type human APP695. […] The colorimetric reaction was read by an EnVision (PerkinElmer) plate-reader.

human BACE2 = human BACE2 (Homo sapiens (Human), UniProt Q9Y5Z0); assay: BACE2 binding assay (SPA), BACE2/BACE1 Binding Ratio; conditions: ratio of IC50 from respective binding assays, pH 6.0
human BACE2, sequence (Q9Y5Z0 63-518): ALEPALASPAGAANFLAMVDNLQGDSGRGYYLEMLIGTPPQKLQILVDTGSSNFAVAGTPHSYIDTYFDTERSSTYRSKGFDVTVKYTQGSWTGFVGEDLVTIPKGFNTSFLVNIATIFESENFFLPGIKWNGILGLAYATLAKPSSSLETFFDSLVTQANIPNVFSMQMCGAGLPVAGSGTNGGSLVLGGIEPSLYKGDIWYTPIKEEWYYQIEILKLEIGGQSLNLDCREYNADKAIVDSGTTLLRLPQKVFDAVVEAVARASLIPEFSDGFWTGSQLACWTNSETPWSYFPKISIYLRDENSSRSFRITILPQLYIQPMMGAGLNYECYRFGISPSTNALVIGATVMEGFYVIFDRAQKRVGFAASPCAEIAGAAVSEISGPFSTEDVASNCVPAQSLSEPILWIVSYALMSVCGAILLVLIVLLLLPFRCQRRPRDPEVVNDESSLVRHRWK
Procedure: BACE2/BACE1 Binding Ratio: The BACE1 and BACE2 binding assays measured beta-site amyloid precursor protein-cleaving enzyme (BACE) binding as a decrease in the counts of radioligand bound in a scintillation proximity assay (SPA). […] Full length human BACE1 or BACE2 over-expressed in HEK cells was prepared by Pfizer scientists. Frozen stock cell paste was reacted in 50 mM sodium acetate buffer (pH=6.0) containing 3H-(4aR,6R,8aS)-8a-(2,4-difluorophenyl)-6-(1-methyl-1H-pyrazol-4-yl)-4,4a,5,6,8,8a-hexahydropyrano[3,4-d][1,3]thiazin-2-amine ligand, SPA bead and 60 μM to 600 pM of test compound in an assay volume of 27 uL. The compound plate also contained positive (BACE inhibitor) and negative (DMSO) control wells. The binding was carried out at room temperature for 30 minutes and then the plates were read on a TriLux Microbeta reader to determine the number of counts bound.

GSH Incubation Assay = assay type: in vitro ADME; conditions: following incubations with glutathione
Procedure: GSH Incubation Assay: The test compound (10 μM in DMSO) was incubated with L-glutathione (50 mM, prepared in 100 mM postassium phosphate buffer) at 37° C. for 4 hours and then analyzed by HPLC-UV/MS/MS without work-up. Thermo Accela HPLC and Velos Pro Orbitrap Elite (S/N: SN05189B) operating in positive mode with a source voltage of 3.5 kV with data dependant processing. […] Product assignments were based on high resolution mass spectrometer fragmentation.

IC50 [1] [nM]	BACE2/BACE1 Binding Ratio (human BACE2)	formation of GSH adducts (GSH Incubation Assay)	SMILES
–	–	not detected	Cc1cc(OC(F)F)cnc1C(=O)Nc1csc([C@]23CO[C@@H](C)C[C@H]2CSC(N)=N3)n1 [Example 45, N-{2-[(4aR,6S,8aR)-2-amino-6-methyl-4,4a,5,6-tetrahydropyrano[3,4-d][1,3]thiazin-8a(8H)-yl]-1,3-thiazol-4-yl}-5-(difluoromethoxy)-3-methylpyridine-2-carboxamide]
–	–	not detected	C[C@H]1C[C@H]2CSC(N)=N[C@@]2(c2nc(NC(=O)c3cnc(OC(F)F)cn3)cs2)CO1 [Example 2, N-{2-[(4aR,6S,8aR)-2-amino-6-methyl-4,4a,5,6-tetrahydropyrano[3,4-d][1,3]thiazin-8a(8H)-yl]-1,3-thiazol-4-yl}-5-(difluoromethoxy)pyrazine-2-carboxamide]
–	–	not detected	C[C@H]1C[C@H]2CSC(N)=N[C@@]2(c2nc(NC(=O)c3ccc(Cl)cn3)cs2)CO1 [Example 7, N-{2-[(4aR,6S,8aR)-2-amino-6-methyl-4,4a,5,6-tetrahydropyrano[3,4-d][1,3]thiazin-8a(8H)-yl]-1,3-thiazol-4-yl}-5-chloropyridine-2-carboxamide]

The remaining lines, values behind:

SMILES	IC50 [1] [nM]	BACE2/BACE1 Binding Ratio (human BACE2)	formation of GSH adducts (GSH Incubation Assay)
C[C@H]1C[C@H]2CSC(N)=N[C@@]2(c2cc(NC(=O)c3ccc(Cl)cn3)ccc2F)CO1 [Comparator 7]	< 1	1.0	–
C[C@H]1C[C@H]2CSC(N)=N[C@@]2(c2nc(NC(=O)c3ccc(OC(F)F)cn3)cs2)CO1 [Example 1, N-{2-[(4aR,6S,8aR)-2-amino-6-methyl-4,4a,5,6-tetrahydropyrano[3,4-d][1,3]thiazin-8a(8H)-yl]-1,3-thiazol-4-yl}-5-(difluoromethoxy)pyridine-2-carboxamide]	–	–	not detected
NC1=N[C@@]2(c3cc(NC(=O)c4ccc(OC(F)F)cn4)ccc3F)CO[C@@H](C(F)(F)F)C[C@H]2CS1 [Comparator 6]	< 1	1.0	–
